Laboratory results: paper PMC9814918, “Rapid optimisation of fragments and hits to lead compounds from screening of crude reaction mixtures” (Communications Chemistry, 2020)
Like-named read-outs stand apart in the source and are kept apart here.

Assays:
PDHK2 [1] = target: T1, PDHK2 (Homo sapiens, UniProt Q15119); assay: Soak of purified enantiomers into PDHK2 crystals; assay type: binding; settings: 2 days, 2 mM
T1 construct: human PDHK2 (residues 16–407); His tag with TEV protease cleavage site (N, cleaved yes); made in house; host or cells: BL21 cells (E. coli)
Protocol: CRM number 11 is a racemate of two enantiomers, 23 and 24. […] A PR was obtained for all three of the soaks of CRM number 11 in the full XChem screen that selected just the higher-affinity eutomer 23.
A final concentration of 2 mM of each of the 13 CRMs and 17 pure compounds was added into crystal drops of PDHK2 in triplicate for soak-time durations of 2–4 h, O/N and 2 days at 4 °C. In addition, the final compound concentrations of 0.5 mM and 1 mM were added into PDHK2 crystal drops in triplicate, which were subsequently left to soak for 2 days also at 4 °C. Glycerol was added as a cryoprotectant (at a final concentration of 20%) by ECHO acoustic transfer shortly before mounting the crystals in cryo-cooled pucks. All data were collected on beamline I04-1 in automated mode and autoprocessed using xia2[23].

PDHK2 [2] = target: T1, PDHK2; assay: FP assay; assay type: binding; settings: PDHK2, purified enantiomer; read-out: Kd determined by FP assay
Hsp90 [3] = target: T2, Hsp90 (Homo sapiens, UniProt P07900); assay: Isothermal titration calorimetry; settings: read-out: KD measured by ITC for binding to Hsp90
T2 construct: N-terminal domain of human Hsp90α (residues 1–236); made in house; host or cells: BL21 cells (E. coli)
Protocol: ITC experiments were conducted at 25 °C by titration of a stock sample of 100 µM compound onto a solution of 10 µM Hsp90 in a GE ITC200 instrument.

Hsp90 [4] = target: T2, Hsp90; assay: SPR off-rate (koff) of crude reaction mixtures and starting materials; assay type: binding; settings: 25 °C
Protocol: (§1) The off-rate or koff for dissociation of each of the 83 CRMs from Hsp90 and PDHK2 was measured in duplicate by SPR and is shown in Supplementary Table 1. Failure to obtain a koff value for some CRMs (not determined, ND) was due to poor signal and was most marked for PDHK2.
(§2) Both proteins (human PDHK2 (residues 16–407) and N-terminal domain of human Hsp90α (residues 1–236)) were expressed as an N-terminal His tag fusion protein with a TEV protease cleavage in BL21 cells and purified on a Ni^2+ affinity followed by size-exclusion column, details as previously described[13],[27]. Uncleaved His-tagged variants were used in SPR experiments; tags were removed for crystallisation.
(§3) SPR experiments were conducted on T200 and T100 BIAcore instruments (GE Healthcare) at 25 °C. The His-tagged proteins were immobilised on a series of S NTA chips, and the running buffer with 10 mM HEPES, pH 7.4, 150 mM NaCl, 0.05% P-20, 0.025 mM EDTA and 1% DMSO was used. The sensor surface was regenerated between cycles to eliminate any carryover of protein and/or analyte. Details are as described previously.

PDHK2 [5] = target: T1, PDHK2; assay: as above; assay type: binding
Protocol: as §1, §2, §3

Hsp90 [6] = target: T2, Hsp90; assay: KD by SPR titration of purified compounds; assay type: binding; settings: purified product of the CRM, 25 °C, average of at least two determinations, read-out: KD (SPR) (µM) of pure
Description: Table 3 summarises for each of the purified compounds from these nine CRMs, the results of a manual soaking of the purified compound or the CRM into Hsp90 crystals, and the measurement for the purified compounds of solubility and KD measured by both SPR titration and by isothermal titration calorimetry (ITC). […] This leaves anomalies for seven CRMs that gave SM. One of these had low solubility (CRM 75), leaving six CRMs giving SM on repeated manual soaking to explain.
as §3

[7] = Hsp90, SPR, CRM (SM1, SM2: starting material), read-out: koff CRM

Compound	crystal structure from soak of purified enantiomer into PDHK2 crystals (PDHK2 [1])	Kd (PDHK2 [2]) [µM]	Kd (Hsp90 [3]) [µM]	koff (Hsp90 [4]; [7]) [s⁻¹]	koff (Hsp90 [4]; SPR, CRM unpurified (SM1/SM2 head lines: starting material), duplicate, 1 given to all koff >= 1 sec-1 (limit of assay sensitivity), read-out: koff s-1 Hsp90) [s⁻¹]	koff (PDHK2 [5]; CRM unpurified (SM1/SM2 head lines: starting material), duplicate, 25 °C, 1 given to all koff >= 1 sec-1 (limit of assay sensitivity), read-out: koff s-1 PDHK2) [s⁻¹]	koff (PDHK2 [5]; read-out: koff for PDHK2) [s⁻¹]	Kd (Hsp90 [6]) [µM]
COc1cc2c(cc1OC)[C@H](c1cccnc1)N(C(=O)c1ccc(O)cc1O)CC2 [Compound 23]	structures were obtained	0.14						
COc1cc2c(cc1OC)[C@@H](c1cccnc1)N(C(=O)c1ccc(O)cc1O)CC2 [Compound 24]	structures were obtained	17						
NC(=O)c1ccc(O)cc1O [SM1]			2000	> 1	≥ 1	≥ 1	> 1	2000
CN(C(=O)c1ccc(O)cc1O)c1ccc(C(N)=O)cc1 [SM2]				0.2			0.083	2
